Where only a bound is given, the exact number is not on record here.

The assay has as its system asymmetric di-methyl PABP1 in RKO cells. As to the kind of experiment: RKO methylation assay, In Cell Western (ICW) for asymmetric di-methyl PABP1. The assay is classed as cell-based. As to conditions: Homo sapiens, RKO, Cellular potencies, ICW PABP1me2a. Put shortly: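 RKO cells treated with compound for 48 h at 37 °C, then fixed, permeabilized and immunostained for asymmetric di-methyl PABP1, with DRAQ5 as DNA stain. Infrared 700/800 nm signal ratio normalized to DMSO and 20 μM reference-compound controls; IC50 from triplicate wells.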
As a reminder, the IC50 is the concentration that gives 50% inhibition. High values mean lower potency, low ones higher potency. The molecule `CNC[C@@H](O)COc1ccc(Cl)c(-c2nc(NC3CCN(C)CC3(F)F)c(C)c(-c3c(C)noc3C)n2)c1` (stereo partly shown) [Example 258-3] displayed an IC50 of under 5 µM. With `CC[C@@H]1CN(c2nc(-c3cccc(OCC(O)CNC)c3)nc(-c3c(C)noc3C)c2C)CCN1S(C)(=O)=O` (stereo partly shown) [Example 153-1a] the figure was under 5 µM; with `CNCC(O)COc1cccc(-c2nc(NC3CCOC3)c(C)c(N3CCN[C@@H](C)C3)n2)c1` (stereo partly shown) [Example 351-1a], 5 to 10 µM. With `CNCC(O)COc1cccc(-c2nc(OCC3CCN(S(C)(=O)=O)CC3)c(C)c(-c3c(C)noc3C)n2)c1` (stereo not shown) [Example 286-1a] the figure was under 5 µM; with `CNC[C@H](O)COc1ccc(Cl)c(-c2nc(N[C@H]3CCN(C(=O)OC)C[C@H]3F)c(C)c(-c3c(C)noc3C)n2)c1` [Example 65-3], under 5 µM. With `CNCC(O)COc1cccc(-c2nc(NC3CCOCC3)c(C)c(-c3c(C)noc3CO)n2)c1` (stereo not shown) [Example 145-3] the figure was 10 to 20 µM; with `CNCC(O)COc1cccc(-c2nc(NC3CCN(C4CC4)CC3)c(C)c(-c3c(C)noc3C)n2)c1` (stereo not shown) [Example 185-1a], under 5 µM. `CNC[C@@H](O)COc1ccc(Cl)c(-c2nc(-c3c(C)noc3C)c(C)c(N3CC4(CCCCO4)C3)n2)c1` [Example 290-3]: the IC50 was under 5 µM.

Regarding `CNCC(O)COc1cccc(-c2nc(N[C@H]3C[C@@](C)(O)C3)c(C)c(-c3c(C)noc3C)n2)c1` (stereo partly shown) [Example 255-1a], the IC50 was under 5 µM. `CNCC(O)COc1cccc(-c2nc(NC3CCC[C@H]3O)c(C)c(-c3c(C)noc3C)n2)c1` (stereo partly shown) [Example 219-1a] yielded an IC50 of under 5 µM. With `CCOC(=O)N1CCN(c2cc(-c3c(C)noc3C)nc(-c3cccc(OCC(O)CNC)c3)n2)CC1` (stereo not shown) [Example 28-1a] the figure was under 5 µM; with `CNCC(O)COc1cc(Cl)cc(-c2nc(-c3ccncc3)c(Br)c(N(C)C3CCOCC3)n2)c1` (stereo not shown) [Example 611-1a], 10 to 20 µM; with `CCOC(=O)N1CCN(c2nc(-c3cccc(OCC(O)CNC)c3)nc(N[C@@H]3CCOC3)c2C)C[C@H]1C` (stereo partly shown) [Example 470-1a], under 5 µM. With `CCOC(=O)N1CC[C@@H](Nc2nc(-c3cccc(OCC(O)CNC)c3)nc(-c3c(C)noc3C)c2C)[C@H](F)C1` (stereo partly shown) [Example 229-1a] the figure was under 5 µM; with `CNC[C@@H](O)COc1ccc(Cl)c(-c2nc(N[C@@H]3CCN(C)C[C@@H]3F)c(C)c(-c3c(C)noc3C)n2)c1` [Example 194-3], under 5 µM. In turn, `CNCC(O)COc1cccc(-c2nc(-c3c(C)noc3C)cc(N3CCN(C4CCOCC4)CC3)n2)c1` (stereo not shown) [Example 166-1a] gave an IC50 of under 5 µM.

`CNCC(O)COc1ccc(C)c(-c2nc(NC3CCOC(C)C3)c(C)c(-c3c(C)noc3C)n2)c1` (stereo not shown) [Example 124-3] yielded an IC50 of under 5 µM. The figure for `CNC[C@H](O)COc1ccc(Cl)c(-c2nc(N[C@H]3CCN(C(=O)OC)[C@H](C)C3)c(C)c(-c3c(C)noc3C)n2)c1` [Example 103-3] is under 5 µM.

`CNCC(O)COc1cccc(-c2nc(N3CCNCC3)c(C)c(N(C)C3CCOCC3)n2)c1` (stereo not shown) [Example 560-1a] came in with an IC50 of 10 to 20 µM. With `CNCC(O)COc1cccc(-c2nc(NC3CCN(C(=O)C4CC4)C3)c(C)c(-c3c(C)noc3C)n2)c1` (stereo not shown) [Example 243-1a] the figure was under 5 µM; with `CNCC(O)COc1cccc(-c2nc(-c3c(C)noc3C)cc(N(C)c3cncnc3)n2)c1` (stereo not shown) [Example 50-1a], under 5 µM. With `CNCC(O)COc1cccc(-c2nc(N[C@@H]3CCN(C4CC4)C[C@@H]3F)c(C)c(-c3c(C)noc3C)n2)c1` (stereo partly shown) [Example 260-1a], the IC50 was under 5 µM. The figure for `CNC[C@@H](O)COc1ccc(F)c(-c2nc(-c3c(C)noc3C)c(C)c(N3CC4(CCN(CC(F)F)CC4)C3)n2)c1` [Example 280-3] is under 5 µM; for `CNCC(O)COc1cccc(-c2nc(NC)cc(-c3c(C)noc3C)n2)c1` (stereo not shown) [Example 27-1a] it is 10 to 20 µM.

Regarding `CNC[C@@H](O)COc1ccc(F)c(-c2nc(-c3c(C)noc3C)c(C)c(N3Cc4cc(F)cnc4C3)n2)c1` [Example 164-3], the IC50 is under 5 µM. As for `CCS(=O)(=O)N1CC2(CCN(c3nc(-c4cccc(OCC(O)CNC)c4)nc(-c4c(C)noc4C)c3C)CC2)C1` (stereo not shown) [Example 253-1a], the IC50 was under 5 µM. The figure for `CNCC(O)COc1cccc(-c2nc(N[C@@H]3CCOC3)c(C)c(N3C[C@H]4CNC[C@H]4C3)n2)c1` (stereo partly shown) [Example 440-1a] is 10 to 20 µM; for `CNCC(O)COc1cccc(-c2nc(N[C@@H]3CCOC3)c(C)c(N3CC[C@H](N(C)C)C3)n2)c1` (stereo partly shown) [Example 368-1a] it is under 5 µM; for `CNC[C@@H](O)COc1ccc(Cl)c(-c2nc(NC[C@H]3CCCO3)c(Cl)c(-c3c(C)noc3C)n2)c1` [Example 215-3] it is under 5 µM. For `CNC[C@@H](O)COc1ccc(F)c(-c2nc(-c3c(C)noc3C)c(C)c(N3Cc4cc(OC)cnc4C3)n2)c1` [Example 244-3], the IC50 is under 5 µM.

In turn, `CNCC(O)COc1cccc(-c2nc(N[C@@H]3CCOC3)c(C)c(-c3cnc(OC)nc3)n2)c1` (stereo partly shown) [Example 356-1a] returned an IC50 of 10 to 20 µM. Turning to `CCS(=O)(=O)N1CCC(Nc2nc(-c3cccc(OCC(O)CNC)c3)nc(-c3c(C)noc3C)c2C)CC1` (stereo not shown) [Example 168-1a], the IC50 is under 5 µM.

The molecule `CNCC(O)COc1cccc(-c2nc(-c3cn(C)c(C)n3)cc(N(C)C3CCOCC3)n2)c1` (stereo not shown) [Example 529-1a] returned an IC50 of 5 to 10 µM. With `CCOC(=O)N1CC[C@@H](Nc2nc(-c3cccc(OCC(O)CNC)c3)nc(-c3c(C)noc3C)c2C)[C@@H](F)C1` (stereo partly shown) [Example 226-1a] the figure was under 5 µM. With `CNCC(O)COc1cccc(-c2nc(-c3c(C)noc3C)cc(N3CCN(S(C)(=O)=O)[C@@H](C)C3)n2)c1` (stereo partly shown) [Example 92-1a] the figure was under 5 µM; with `CNCC(O)COc1cccc(-c2nc(-c3c(C)noc3C)cc(N3CCN(C)[C@H](C)C3)n2)c1` (stereo partly shown) [Example 175-1a], 5 to 10 µM. With `CCOC(=O)N1CCC[C@H]1CCOc1nc(-c2cc(OC[C@H](O)CNC)ccc2Cl)nc(-c2c(C)noc2C)c1C` [Example 221-3] the figure was under 5 µM.

Consider `CNC[C@@H](O)COc1ccc(Cl)c(-c2nc(-c3c(C)noc3C)c(C)c(N3Cc4cc(Cl)cnc4C3)n2)c1` [Example 156-3], for which the IC50 was under 5 µM. With `CNCC(O)COc1ccc(Cl)c(-c2nc(NC3CCOCC3)c(C)c(-c3c(CO)noc3C)n2)c1` (stereo not shown) [Example 273-3] the figure was 5 to 10 µM. With `CNCC(O)COc1cccc(-c2nc(NC3CCN(C(=O)OC)C3)c(C)c(-c3c(C)noc3C)n2)c1` (stereo not shown) [Example 186-1a] the figure was under 5 µM. The figure for `CNC[C@@H](O)COc1ccc(Cl)c(-c2nc(N[C@@H]3CO[C@H](C)C3)c(Cl)c(-c3c(C)noc3C)n2)c1` [Example 180-3] is under 5 µM. For the molecule `CCc1onc(C)c1-c1nc(-c2cccc(OCC(O)CNC)c2)nc(NC2CCOCC2)c1C` (stereo not shown) [Example 276-1a], the IC50 is under 5 µM. With `CNCC(O)COc1cccc(-c2nc(NCC3CCOCC3)c(C)c(-c3c(C)noc3C)n2)c1` (stereo not shown) [Example 88-1a] the figure was under 5 µM; with `CNC[C@H](O)COc1ccc(F)c(-c2nc(-c3c(C)noc3C)c(C)c(N3CCC4(CCN(C(=O)OC)C4)C3)n2)c1` (stereo partly shown) [Example 106-3], under 5 µM; with `CNCC(O)COc1cccc(-c2nc(N3CCN(CCF)[C@@H](C)C3)cc(N(C)C3CCOCC3)n2)c1` (stereo partly shown) [Example 578-1a], 10 to 20 µM.

`CCOC(=O)N1CCOC[C@H]1CNc1nc(-c2cc(OC[C@H](O)CNC)ccc2F)nc(-c2c(C)noc2C)c1C` [Example 60-3] showed an IC50 of under 5 µM. The figure for `CNCC(O)COc1cccc(-c2nc(N(C)C3CCOCC3)cc(N3C[C@@H]4C[C@H]3CN4C)n2)c1` (stereo partly shown) [Example 543-1a] is 10 to 20 µM; for `CNCC(O)COc1cccc(-c2nc(-c3cccc(C#N)c3)cc(N(C)C3CCOCC3)n2)c1` (stereo not shown) [Example 622-1a] it is 10 to 20 µM; for `CNC[C@@H](O)COc1ccc(Cl)c(-c2nc(-c3c(C)noc3C)c(Cl)c(N3Cc4cccnc4C3)n2)c1` [Example 168-3] it is under 5 µM. The figure for `CNCC(O)COc1cccc(-c2nc(NC3CCOC3)c(C)c(N3CCN(CC(F)F)C(C)(C)C3)n2)c1` (stereo not shown) [Example 457-1a] is 10 to 20 µM. With `CNCC(O)COc1cccc(-c2nc(N[C@@H]3CCOC3)c(C)c(N3CCN(C)[C@H](C)C3)n2)c1` (stereo partly shown) [Example 463-1a] the figure was under 5 µM; with `CNC[C@@H](O)COc1ccc(Cl)c(-c2nc(-c3c(C)noc3C)c(C)c(N3CC4(CCC4)C3)n2)c1` [Example 246-3], under 5 µM.

In turn, `CNCC(O)COc1cc(Cl)cc(-c2nc(-c3ccc(N(C)C)nc3)c(C)c(N(C)C3CCOCC3)n2)c1` (stereo not shown) [Example 614-1a] had an IC50 of 10 to 20 µM. With `CNCC(O)COc1cccc(-c2nc(SC)c(C)c(-c3c(C)noc3C)n2)c1` (stereo not shown) [Example 53-1a] the figure was 10 to 20 µM.

`CCOC(=O)N1CCOC[C@@H]1CNc1nc(-c2cc(OC[C@@H](O)CNC)ccc2F)nc(-c2c(C)noc2C)c1C` [Example 61-3] registered an IC50 of under 5 µM. With `CNC[C@@H](O)COc1ccc(Cl)c(-c2nc(-c3c(C)noc3C)c(C)c(N3CC4(CCN(CC(F)F)CC4)C3)n2)c1` [Example 283-3] the figure was under 5 µM; with `CNCC(O)COc1cccc(-c2nc(-c3c(C)nn(C)c3C)cc(N(C)C3CCOCC3)n2)c1` (stereo not shown) [Example 528-1a], 5 to 10 µM. As for `CCS(=O)(=O)N1CCC(Nc2nc(-c3cc(OC[C@@H](O)CNC)ccc3Cl)nc(-c3c(C)noc3C)c2C)CC1` [Example 67-3], the IC50 is under 5 µM. `CNCC(O)COc1cc(Cl)cc(-c2nc(-c3cnn(C)c3)cc(N(C)C3CCOCC3)n2)c1` (stereo not shown) [Example 610-1a] displayed an IC50 of 10 to 20 µM.

In turn, `CNCC(O)COc1cc(Cl)cc(-c2nc(Nc3cncnc3)c(C)c(N(C)C3CCOCC3)n2)c1` (stereo not shown) [Example 506-1a] showed an IC50 of under 5 µM. The figure for `CNCC(O)COc1cccc(-c2nc(C3=CCCC3)cc(N(C)C3CCOCC3)n2)c1` (stereo not shown) [Example 621-1a] is 10 to 20 µM.

The values are drawn from patent publication US10633389B2, “CARM1 inhibitors and uses thereof” (Epizyme, Inc., priority 2013, dated 2020).
